Experimental findings from patent US8030336B2, “Nicotinamide-based kinase inhibitors” (YM Biosciences Australia Pty Ltd, priority 2002, dated 2011) are described below.

What all share (format): biochemical
Assay [1] concerns the target T1, human JAK2 (Homo sapiens, UniProt O60674).
T1 construct: The kinase domain of human JAK2 was amplified from U937mRNA; His tag (from the pFastBac HTc vector) (N); made in house; host or cells: baculovirus; Sf9 for virus, High Five insect cells for production
Nature of the assay: JAK2 kinase assay (ELISA or Alphascreen). Conditions: read-out: Jak2 inhibition of enzyme activity. An excerpt:
The kinase domain of human JAK2 was amplified from U937mRNA using the polymerase chain reaction with the following primers: […]
JAK2 PCR products were doped into the pFastBac HTc expression vector (Gibco) via the Sal I and Not I sites. The JAK2 plasmid was than transformed into competent DH10Bac cells (Gibco), and the recombinant baculovirus produced prepared for transfection into Sf9 insect cells.
(§1) Baculovirus preparations from each of the JAK family members were infected into five liters of High Five cells (Invitrogen) grown in High Five serum free medium (Invitrogen) to a cell density of approximately 1-2×10^6 cells/ml. Cells are infected with virus at a MOI of 0.8-3.0. Cells were harvested and lysed. JAK kinase domains were purified by affinity chromatography on a Probond (Invitrogen) nickel chelate affinity column.
(§2) Kinase assays were performed in a 96 well capture-based ELISA assay or in 384 well Optiplates (Packard) using an Alphascreen Protein Tyrosine Kinase kit. In either case using approximately 1.5 μg of affinity purified PTK domain in the presence of 50 mM HEPES, pH 7.5, 10 mM MgCl2, 150 mM NaCl and 10 μM-1 mM ATP. The biotinylated substrate biotin-EGPWLEEEEEAYGWMDF-NH2 (SEQ ID NO:9) (final concentration 5 μM) was used as substrate. In the ELISA assay tyrosine phosphorylation was quantitated following transfer to an avidin coated ELISA plate using peroxidase-linked anti-phosphotyrosine antibody PY20. In the Alphascreen assay, Alphascreen phosphotyrosine acceptor beads followed by streptavidin donor beads were added under subdued light. The ELISA plates were read on a BMG Fluorostar, the Alphascreen plates were read on a Packard Fusion Alpha. Inhibitors were added to the assays fifteen minutes prior to the addition of ATP. Inhibitors were added in aqueous […] concentrations never exceeding 1%.

Assay [2] deals with T2, human JAK3 (Homo sapiens, UniProt P52333).
T2 construct: The kinase domain of human JAK3 was amplified from U937mRNA; His tag (from the pFastBac HTb vector) (N); made in house; host or cells: baculovirus; Sf9 for virus, High Five insect cells for production
Nature of the assay: JAK3 kinase assay (ELISA or Alphascreen). Conditions: read-out: Jak3 inhibition of enzyme activity.
From the text: The kinase domain of human JAK3 was amplified from U937mRNA using the polymerase chain reaction with the following primers: […]
JAK3 PCR products were cloned into the pFastBac HTb expression vector (Gibco) via the Xho I and Kpn I sites. The JAK3 plasmid was then transformed into competent DH10Bac cells (Gibco), and the recombinant baculovirus produced prepared for transfection into Sf9 insect cells.
as §1, §2

Assay [3] has as its target T3, abl (Homo sapiens, UniProt P00519).
T3 sequence (P00519 242-493 limits assumed): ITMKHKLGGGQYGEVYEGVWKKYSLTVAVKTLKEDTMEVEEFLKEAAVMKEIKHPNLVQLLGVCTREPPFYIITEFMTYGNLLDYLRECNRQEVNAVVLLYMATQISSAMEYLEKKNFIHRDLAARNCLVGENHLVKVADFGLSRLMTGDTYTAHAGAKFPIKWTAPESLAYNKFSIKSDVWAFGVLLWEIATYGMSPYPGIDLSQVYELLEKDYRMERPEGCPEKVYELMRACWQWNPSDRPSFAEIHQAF
Description: abl kinase assay (ELISA or Alphascreen). Conditions: read-out: abl inhibition of enzyme activity. Here is the method: as §2

The target in assay [4] is fes (Homo sapiens, UniProt P07332). Description: fes kinase assay (ELISA or Alphascreen). To be noted: read-out: fes inhibition of enzyme activity. Here is the method:
as §2

Assay [5] addresses T4, fms (Homo sapiens, UniProt P07333).
T4 sequence (P07333 582-910 limits assumed): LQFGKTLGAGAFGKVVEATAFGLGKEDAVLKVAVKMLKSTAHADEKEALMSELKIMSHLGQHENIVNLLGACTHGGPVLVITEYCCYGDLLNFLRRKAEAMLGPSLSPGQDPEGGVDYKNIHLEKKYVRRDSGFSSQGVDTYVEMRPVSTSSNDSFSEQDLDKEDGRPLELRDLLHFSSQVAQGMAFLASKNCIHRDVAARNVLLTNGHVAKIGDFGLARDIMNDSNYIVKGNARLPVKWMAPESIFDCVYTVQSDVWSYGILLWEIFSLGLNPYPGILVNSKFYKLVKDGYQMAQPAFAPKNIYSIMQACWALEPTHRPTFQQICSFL
Nature of the assay: fms kinase assay (ELISA or Alphascreen). Conditions: read-out: fms inhibition of enzyme activity. Here is the method:
as §2

Assay [6] addresses T5, Zap70 (Homo sapiens, UniProt P43403).
T5 sequence (P43403 338-600 limits assumed): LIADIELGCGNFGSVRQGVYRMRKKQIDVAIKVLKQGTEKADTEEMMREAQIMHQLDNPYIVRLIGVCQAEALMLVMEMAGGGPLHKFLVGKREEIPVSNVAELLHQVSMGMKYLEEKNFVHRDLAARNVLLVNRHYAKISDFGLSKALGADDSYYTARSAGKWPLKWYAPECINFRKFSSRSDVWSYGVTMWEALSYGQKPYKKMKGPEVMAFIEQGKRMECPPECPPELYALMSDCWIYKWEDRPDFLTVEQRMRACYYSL
Nature of the assay: Zap70 kinase assay (ELISA or Alphascreen). Conditions: read-out: Zap70 inhibition of enzyme activity. The method, then: as §2

Assay [7] has as its target hck (Homo sapiens, UniProt P08631). Nature of the assay: hck kinase assay (ELISA or Alphascreen). To be noted: read-out: hck inhibition of enzyme activity. Here is the method:
as §2

Molecules are shown by their SMILES. A value given as a limit tells only on which side of the number the result lay.

hck, sequence (P08631 262-515 limits assumed, species assumed): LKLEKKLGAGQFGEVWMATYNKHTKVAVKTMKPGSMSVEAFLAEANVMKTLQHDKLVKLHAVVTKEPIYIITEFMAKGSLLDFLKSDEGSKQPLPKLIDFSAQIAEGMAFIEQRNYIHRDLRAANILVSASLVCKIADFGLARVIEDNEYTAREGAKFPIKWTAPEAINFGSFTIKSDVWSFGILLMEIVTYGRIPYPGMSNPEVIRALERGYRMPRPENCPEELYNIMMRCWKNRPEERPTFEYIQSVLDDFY
T2 sequence (P52333 822-1111 limits assumed): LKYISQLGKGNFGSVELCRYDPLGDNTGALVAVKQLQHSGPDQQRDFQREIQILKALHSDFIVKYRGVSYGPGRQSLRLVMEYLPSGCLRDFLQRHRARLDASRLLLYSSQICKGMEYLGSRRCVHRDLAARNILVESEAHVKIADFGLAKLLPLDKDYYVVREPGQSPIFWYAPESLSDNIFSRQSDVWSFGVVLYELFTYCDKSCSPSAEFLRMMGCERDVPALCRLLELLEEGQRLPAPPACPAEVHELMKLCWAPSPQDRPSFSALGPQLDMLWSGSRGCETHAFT
fes, sequence (P07332 561-822 limits assumed, species assumed): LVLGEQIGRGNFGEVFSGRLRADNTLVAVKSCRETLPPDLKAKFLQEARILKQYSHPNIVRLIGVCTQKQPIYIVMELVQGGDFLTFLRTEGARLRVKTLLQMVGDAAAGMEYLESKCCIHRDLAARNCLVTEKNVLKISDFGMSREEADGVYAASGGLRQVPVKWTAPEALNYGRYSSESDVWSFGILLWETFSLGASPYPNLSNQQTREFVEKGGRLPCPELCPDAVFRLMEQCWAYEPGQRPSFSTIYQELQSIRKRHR
T1 sequence (O60674 849-1124 limits assumed): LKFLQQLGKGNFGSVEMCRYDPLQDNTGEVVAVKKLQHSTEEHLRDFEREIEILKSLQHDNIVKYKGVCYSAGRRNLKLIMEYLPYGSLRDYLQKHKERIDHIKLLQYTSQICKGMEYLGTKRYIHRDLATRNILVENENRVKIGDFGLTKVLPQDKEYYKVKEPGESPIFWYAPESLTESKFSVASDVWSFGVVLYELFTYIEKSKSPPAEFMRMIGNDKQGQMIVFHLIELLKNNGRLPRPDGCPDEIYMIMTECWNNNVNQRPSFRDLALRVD

In the case of `COc1cc(CNC(=O)c2cncc(-c3ccc(O)cc3)c2)cc(OC)c1`, the inhibition at 10 µM in assay [1], in assay [2], in assay [3], in assay [4], in assay [5] and in assay [6] was < 50% in each case.

Turning to `Cc1ccc(F)cc1NC(=O)c1cncc(-c2ccc(O)cc2)c1`, the inhibition at 10 µM in assay [1] is < 50%; in assay [2], < 50%; in assay [3] it was ≥ 50%; in assay [4], < 50%; in assay [5], < 50%; in assay [6], < 50%.

For `Cc1ccc(CNC(=O)c2cncc(-c3cc(C)c(O)c(C)c3)c2)cc1`, the inhibition at 10 µM in assay [1], in assay [2], in assay [3], in assay [4], in assay [5] and in assay [6] was < 50% in each case.

On to `Cc1ccc(C)c(CNC(=O)c2cncc(-c3cc(C)c(O)c(C)c3)c2)c1`, for which the inhibition at 10 µM in assay [1] is < 50%; in assay [2], < 50%; in assay [3], ≥ 50%; in assay [4], ≥ 50%; in assay [5], ≥ 50%; in assay [6], < 50%.

For the molecule `Cc1ccc(F)cc1NC(=O)c1cncc(-c2cc(C)c(O)c(C)c2)c1`, the inhibition at 10 µM was < 50% in assay [1]; < 50% in assay [2]; ≥ 50% in assay [5]; ≥ 50% in assay [7]; < 50% in assay [6].

For the molecule `COc1cc(-c2cncc(C(=O)NCc3cccc(F)c3)c2)c(Cl)c(OC)c1OC`, the inhibition at 10 µM in assay [1], in assay [2], in assay [3], in assay [4], in assay [5] and in assay [6] was < 50% each time.

Turning to `COc1cc(-c2cncc(C(=O)Nc3ccc(N4CCOCC4)cc3)c2)c(Cl)c(OC)c1OC`, the inhibition at 10 µM in assay [1], in assay [2], in assay [3], in assay [4], in assay [5] and in assay [6] was < 50% throughout.

On to `COc1cc(NC(=O)c2cncc(-c3cc(OC)c(OC)c(OC)c3Cl)c2)cc(OC)c1OC`, for which the inhibition at 10 µM in assay [1], in assay [2], in assay [4], in assay [5], in assay [7] and in assay [6] was < 50% each time.

On to `C[C@@H](NC(=O)c1cncc(-c2ccc3c(c2)OCO3)c1)c1ccccc1`, for which the inhibition at 10 µM in assay [1], in assay [2], in assay [4], in assay [5], in assay [7] and in assay [6] was < 50% throughout.

For `C[C@H](NC(=O)c1cncc(-c2ccc3c(c2)OCO3)c1)c1ccccc1`, the inhibition at 10 µM in assay [1], in assay [2], in assay [4], in assay [5], in assay [7] and in assay [6] was < 50% in each case.

For `COc1ccc(CNC(=O)c2cncc(-c3ccc4c(c3)OCO4)c2)cc1`, the inhibition at 10 µM in assay [1], in assay [2], in assay [4], in assay [5], in assay [7] and in assay [6] was < 50% in each case.

On to `COc1ccc(NC(=O)c2cncc(-c3ccc4c(c3)OCO4)c2)c(OC)c1`, for which the inhibition at 10 µM in assay [1], in assay [2], in assay [4], in assay [5] and in assay [7] was < 50% each time.

As to `O=C(NCc1ccc(Cl)c(Cl)c1)c1cncc(-c2cccs2)c1`, the inhibition at 10 µM in assay [1], in assay [2], in assay [4], in assay [5], in assay [7] and in assay [6] was < 50% throughout.

`CC(C)C(CO)NC(=O)c1cncc(-c2cccs2)c1` (stereo not shown): the inhibition at 10 µM in assay [1], in assay [2], in assay [4], in assay [5], in assay [7] and in assay [6] was < 50% throughout.

With `O=C(NCc1ccncc1)c1cncc(-c2cccs2)c1`, the inhibition at 10 µM in assay [1], in assay [2], in assay [4], in assay [5], in assay [7] and in assay [6] was < 50% in each case.

Consider `Cc1ccc(C)c(NC(=O)c2cncc(-c3ccc(F)cc3)c2)c1`, for which the inhibition at 10 µM in assay [1], in assay [2], in assay [4], in assay [5], in assay [7] and in assay [6] was < 50% throughout.

As to `COc1ccc(NC(=O)c2cncc(-c3ccc(F)cc3)c2)c(OC)c1`, the inhibition at 10 µM in assay [1], in assay [2], in assay [3], in assay [4], in assay [5] and in assay [6] was < 50% in each case.

As to `COc1cccc(-c2cncc(C(=O)NCc3cccnc3)c2)c1`, the inhibition at 10 µM in assay [1] is < 50%; in assay [2] it was < 50%; in assay [4], < 50%; in assay [5], < 50%; in assay [7], < 50%; in assay [6], ≥ 50%.

For `COc1cccc(-c2cncc(C(=O)Nc3ccccc3C)c2)c1`, the inhibition at 10 µM in assay [1], in assay [2], in assay [3], in assay [4], in assay [5] and in assay [6] was < 50% each time.

For the molecule `COc1cccc([C@H](C)NC(=O)c2cncc(-c3ccc(O)c(OC)c3)c2)c1`, the inhibition at 10 µM in assay [1], in assay [2], in assay [4], in assay [5], in assay [7] and in assay [6] was < 50% throughout.
